Laboratory results: ChEMBL document CHEMBL1201862, “PubChem BioAssay data set” (2004)
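48-hour exposure; five concentrations; linearly interpolated endpoints. GI50 marks 50% less growth.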 Active and inactive are the calls of the source. Rule as the data show it: active = GI50 up to about 1.1 µM and inactive = higher.

Assays:
Test in all cases: NCI anticancer screen, dose series, 48 h
A549 = system: A549
CCRF-CEM = system: CCRF-CEM
EKVX = system: EKVX
HL-60 = system: HL-60
HOP-62 = system: HOP-62
K562 = system: K562
KM12 = system: KM12
MOLT-4 = system: MOLT-4
Malme-3M = system: Malme-3M
NCI-H23 = system: NCI-H23
NCI/ADR-RES = system: NCI/ADR-RES
PC-3 = system: PC-3
SF-295 = system: SF-295
SK-MEL-2 = system: SK-MEL-2
SNB-75 = system: SNB-75
SR = system: SR
SW-620 = system: SW-620
UACC-257 = system: UACC-257
HCT-15 = system: HCT-15
OVCAR-8 = system: OVCAR-8

Compound | GI50 (A549) | GI50 (CCRF-CEM) | GI50 (EKVX) | GI50 (HL-60) | GI50 (HOP-62) | GI50 (K562) | GI50 (KM12) | GI50 (MOLT-4) | GI50 (Malme-3M) | GI50 (NCI-H23) | GI50 (NCI/ADR-RES) | GI50 (PC-3) | GI50 (SF-295) | GI50 (SK-MEL-2) | GI50 (SNB-75) | GI50 (SR) | GI50 (SW-620) | GI50 (UACC-257) | GI50 (HCT-15) [µM] | GI50 (OVCAR-8)
C=CC(Br)(CBr)CCC1OC1(C)C (stereo not drawn) | 23.1 µM (inactive) | 29.9 µM (inactive) | 20.3 µM (inactive) | 23.1 µM (inactive) | 18.9 µM (inactive) | 37.9 µM (inactive) | 17.1 µM (inactive) | 16.7 µM (inactive) | 23.5 µM (inactive) | 16.3 µM (inactive) | 23.5 µM (inactive) | 16.5 µM (inactive) | 16.4 µM (inactive) | 15.1 µM (inactive) | 17.2 µM (inactive) | 26.9 µM (inactive) | 13.1 µM (inactive) | 14.6 µM (inactive) |  | 
COC(Cc1ccccc1)NC(C)=O (stereo not drawn) | > 100 µM (inactive) | > 100 µM (inactive) | > 100 µM (inactive) | > 100 µM (inactive) | > 100 µM (inactive) | > 100 µM (inactive) | > 100 µM (inactive) | > 100 µM (inactive) | > 100 µM (inactive) | > 100 µM (inactive) | > 100 µM (inactive) | > 100 µM (inactive) | > 100 µM (inactive) | > 100 µM (inactive) | > 100 µM (inactive) | > 100 µM (inactive) | > 100 µM (inactive) | > 100 µM (inactive) | > 100 | > 100 µM (inactive)
CCOC(=O)C(NCc1ccc2c(c1)OCO2)(NC(=O)c1ccccc1)C(F)(F)F (stereo not drawn) | 71 µM (inactive) | 19.5 µM (inactive) | 86.1 µM (inactive) | 16.9 µM (inactive) | > 100 µM (inactive) | 44.4 µM (inactive) | 88.1 µM (inactive) | 18 µM (inactive) | > 100 µM (inactive) | 62.2 µM (inactive) | 46.2 µM (inactive) | 65 µM (inactive) | > 100 µM (inactive) | > 100 µM (inactive) | > 100 µM (inactive) | 36 µM (inactive) | > 100 µM (inactive) | > 100 µM (inactive) | > 100 | > 100 µM (inactive)
CON(C)C(=O)C1CCCO1 (stereo not drawn) | > 100 µM (inactive) | > 100 µM (inactive) | 39.5 µM (inactive) | 34.5 µM (inactive) | > 100 µM (inactive) | > 100 µM (inactive) | > 100 µM (inactive) | > 100 µM (inactive) |  | 18.5 µM (inactive) | > 100 µM (inactive) | > 100 µM (inactive) | > 100 µM (inactive) | > 100 µM (inactive) | > 100 µM (inactive) | > 100 µM (inactive) | > 100 µM (inactive) | 57.5 µM (inactive) | > 100 | > 100 µM (inactive)
C[C@H](CCC(=O)O)[C@H]1CC[C@H]2[C@@H]3[C@@H](O)C[C@@H]4C[C@H](O)CC[C@]4(C)[C@H]3CC[C@]12C | 61.4 µM (inactive) | 60.8 µM (inactive) | > 100 µM (inactive) | 63.5 µM (inactive) | > 100 µM (inactive) | 69.8 µM (inactive) | 60 µM (inactive) | 89.7 µM (inactive) | > 100 µM (inactive) | 65.2 µM (inactive) | 38.7 µM (inactive) | 45.4 µM (inactive) | 53.6 µM (inactive) | > 100 µM (inactive) | > 100 µM (inactive) | 47.8 µM (inactive) | > 100 µM (inactive) | 92.9 µM (inactive) | 67.3 | 73.8 µM (inactive)
C/C(=C\c1csc(C)n1)[C@@H]1C[C@@H]2O[C@]2(C)CCC[C@H](C)[C@H](O)[C@@H](C)C(=O)C(C)(C)[C@@H](O)CC(=O)O1 [PATUPILONE] | < 0.0001 µM (active) | < 0.0001 µM (active) | < 0.0001 µM (active) | < 0.0001 µM (active) | < 0.0001 µM (active) | < 0.0001 µM (active) | < 0.0001 µM (active) | < 0.0001 µM (active) | 0.01 µM (active) | < 0.0001 µM (active) | < 0.0001 µM (active) | < 0.0001 µM (active) | < 0.0001 µM (active) | < 0.0001 µM (active) | < 0.0001 µM (active) | < 0.0001 µM (active) | < 0.0001 µM (active) | < 0.0001 µM (active) | < 0.0001 | < 0.0001 µM (active)
CC1CCc2sc3nc(S)n(C)c(=O)c3c2C1 (stereo not drawn) | 33.6 µM (inactive) |  | 19 µM (inactive) | 2.85 µM (inactive) | 39.7 µM (inactive) | 42.2 µM (inactive) | 42.8 µM (inactive) | 41.4 µM (inactive) | 53.6 µM (inactive) | 35.6 µM (inactive) | 36.1 µM (inactive) | 25.5 µM (inactive) | 31.1 µM (inactive) | 40.4 µM (inactive) | 35.9 µM (inactive) | 34 µM (inactive) | 39.2 µM (inactive) | 35.3 µM (inactive) | 39.5 | 39.5 µM (inactive)
COc1cc2c3c(c1O)-c1c(ccc(OC)c1OC)CC3N(C)CC2 (stereo not drawn) | > 100 µM (inactive) | 91.4 µM (inactive) | > 100 µM (inactive) | 40.9 µM (inactive) |  |  | > 100 µM (inactive) | > 100 µM (inactive) |  | > 100 µM (inactive) | > 100 µM (inactive) | > 100 µM (inactive) | > 100 µM (inactive) | > 100 µM (inactive) | > 100 µM (inactive) | > 100 µM (inactive) | > 100 µM (inactive) | > 100 µM (inactive) | > 100 | > 100 µM (inactive)
N#C[BH2-][n+]1cn(C2CC(O)C(COP(=O)(O)OC3CC(n4c[n+]([BH2-]C#N)c5c(=O)[nH]c(N)nc54)OC3CO)O2)c2nc(N)[nH]c(=O)c21 (stereo not drawn) | > 100 µM (inactive) | > 100 µM (inactive) | > 100 µM (inactive) | > 100 µM (inactive) | > 100 µM (inactive) | 10 µM (inactive) | > 100 µM (inactive) | > 100 µM (inactive) | > 100 µM (inactive) | > 100 µM (inactive) | > 100 µM (inactive) | > 100 µM (inactive) | > 100 µM (inactive) | > 100 µM (inactive) | > 100 µM (inactive) | > 100 µM (inactive) | > 100 µM (inactive) |  | > 100 | > 100 µM (inactive)
COC(=NC(C)C)NC(C)C | > 100 µM (inactive) | > 100 µM (inactive) | > 100 µM (inactive) | > 100 µM (inactive) | > 100 µM (inactive) | > 100 µM (inactive) |  | > 100 µM (inactive) |  | > 100 µM (inactive) | > 100 µM (inactive) | > 100 µM (inactive) |  | > 100 µM (inactive) | > 100 µM (inactive) | 77.3 µM (inactive) | > 100 µM (inactive) |  | > 100 | > 100 µM (inactive)
O=c1ssc2ncccc12 | 14.9 µM (inactive) | 31.5 µM (inactive) | 30.2 µM (inactive) | 42.4 µM (inactive) | 20.7 µM (inactive) | 9.66 µM (inactive) | 20.1 µM (inactive) | 64 µM (inactive) | 19.8 µM (inactive) | 28.8 µM (inactive) | 32.6 µM (inactive) | 44 µM (inactive) | 33.5 µM (inactive) | 10.4 µM (inactive) | 14.4 µM (inactive) | 48.2 µM (inactive) | 19.7 µM (inactive) | 20.3 µM (inactive) | 12.1 | 
CC1=NN(C(=O)c2ccccc2O)C(=O)/C1=C/c1cccc(O)c1 | 0.375 µM (active) | 2.88 µM (inactive) | 2.77 µM (inactive) | 2.9 µM (inactive) | 1.18 µM (inactive) | 0.178 µM (active) | 0.389 µM (active) |  | 1.94 µM (inactive) | 0.405 µM (active) | 6.21 µM (inactive) | 3.19 µM (inactive) | 0.671 µM (active) | 0.968 µM (active) | 0.258 µM (active) | 0.938 µM (active) | 3.49 µM (inactive) | 1.21 µM (inactive) | 1.46 | 0.571 µM (active)
C/C=C1/CN2CCC34c5ccccc5N(C)C23C2CC1C4(C(=O)OC)C(OC(C)=O)O2 (stereo not drawn) | > 100 µM (inactive) | > 100 µM (inactive) | > 100 µM (inactive) | > 100 µM (inactive) | > 100 µM (inactive) | > 100 µM (inactive) | > 100 µM (inactive) | > 100 µM (inactive) |  | > 100 µM (inactive) | > 100 µM (inactive) | > 100 µM (inactive) | > 100 µM (inactive) | > 100 µM (inactive) | > 100 µM (inactive) | > 100 µM (inactive) | > 100 µM (inactive) | > 100 µM (inactive) | > 100 | > 100 µM (inactive)
COc1ccc(/C=C2\C[C@H]3[C@@H]4CCC5=C/C(=N/O)CC[C@]5(C)[C@H]4CC[C@]3(C)\C2=N\O)cc1 | 5.01 µM (inactive) |  | 12.5 µM (inactive) | < 0.01 µM (active) | 34.4 µM (inactive) | 6.47 µM (inactive) | 12.2 µM (inactive) | 6.7 µM (inactive) | 34.1 µM (inactive) | 19.5 µM (inactive) | 8.18 µM (inactive) | 8.17 µM (inactive) | 12.6 µM (inactive) | 22.2 µM (inactive) | 19.7 µM (inactive) | 3.99 µM (inactive) | 36.9 µM (inactive) | 30.1 µM (inactive) | 10.6 | 9.42 µM (inactive)
O=C(c1ccco1)n1c2ccc(Br)cc2c2nc3ccccc3nc21 |  | 40.8 µM (inactive) | 34.5 µM (inactive) | > 100 µM (inactive) | 16.1 µM (inactive) | 38.4 µM (inactive) | 26.8 µM (inactive) | 22 µM (inactive) | 35 µM (inactive) | 23.7 µM (inactive) | 35.6 µM (inactive) | 50.4 µM (inactive) | 72.8 µM (inactive) | 34.1 µM (inactive) | 16.6 µM (inactive) | > 100 µM (inactive) | 42.6 µM (inactive) | > 100 µM (inactive) | 48.2 | 35.2 µM (inactive)
